{
  "source": "patent US11185542B2",
  "about": "“Uses of dopamine beta-hydroxylase (DBH) inhibitors and serotonin receptor (5-HT) antagonists for the treatment of cancer” (Jiangsu Yahong Meditech Co., Ltd., priority 2016, dated 2021)",
  "key": {"[1]": {"tested_on": "H22 murine hepatocarcinoma cell line", "assay": "In vitro cell proliferation assay (CellTiter-Glo) in H22 murine hepatocarcinoma cell line", "assay_type": "cell-based", "details": "for anti-proliferative effect on H22 cell line: 1 μM and 0.1, in words; for viability at 0.1 µM / viability at 1 µM: H22, 72 h; for viability at 0.1 µM: read-out: Cell viability (%), 0.1 μM, 72 h, H22 cells; for viability at 1 µM: read-out: Cell viability (%), 1 μM, 72 h, H22 cells", "experimental": "Methods: • (1) Cells were cultured in RPMI-1640 medium supplemented with 10% FBS, 100 U/ml penicillin, and […] streptomycin at 37° C. and 5% CO2 atmosphere. […] The anti-proliferative activity of amperozide, nepicastat, and paclitaxel was tested in the H22 murine hepatocarcinoma cell line according to the experimental procedure described in Example 1."}, "[2]": {"details": "clinical dosage of amperozide 10 mg/day; read-out: plasma maximal concentration (Cmax); cited from earlier work"}, "[3]": {"tested_on": "H22 murine hepatic cancer xenograft", "assay": "In vivo tumor growth, H22 murine hepatic cancer xenograft model (Example 4)", "parameters": "species or system Mouse (Mus Musculus)", "experimental": "(§1) Experiments using the murine H22, CT-26 and EMT-6 xenograft models were performed as described below.\n(§2) Cells were cultured in RPMI-1640 medium supplemented with 10% FBS at 37° C. in an atmosphere of 5% CO2 in air. The tumor cells were routinely subcultured three times weekly. The cells that grew in an exponential growth phase were harvested and counted for tumor inoculation.\n(§3) Mice (female, 6-8 weeks old) were inoculated subcutaneously at the right flank with the tumor cells (H22, EMT-6, or CT-26) in 0.1 mL PBS for tumor development. When the tumor volume reached approximately 60-80 mm^3, the mice were grouped randomly according to the animal body weight and tumor volume. Each group had 5-8 tumor-bearing mice.\n(§4) The major endpoint was to determine if tumor growth could be delayed or mice could be cured. Tumor volume was measured three times weekly in two dimensions using a caliper, and the volume was expressed in mm^3 using the formula: V=0.5 a×b^2, where a and b are the long and short diameters of the tumor, respectively. The T/C value (in percent) was an indication of antitumor effectiveness, where T and C were the mean volume of the treated and control groups, respectively, on a given day. The T-C value was calculated according to TV. T-C was calculated with T as the median time (in days) required for the treatment group tumors to reach a predetermined size (e.g., TV as 1000 mm^3), and C as the median time (in days) for the control group tumors to reach the same size. The body weights were measured and recorded at the same time to observe the toxicity of the compounds. The animals were sacrificed at the termination of the study.\n(§5) Summary statistics, including mean and the standard error of the mean (SEM), are provided for the tumor volume of each group at each time point. A two-way analysis of variance (ANOVA) was performed to compare body weight, tumor volume and tumor volume change. A one-way ANOVA was performed to compare tumor weight. All data were analyzed using GraphPad Prism 5. p<0.05 was considered to be statistically significant.\nThe anti-cancer activity of amperozide and nepicastat was evaluated in a H22 murine hepatic cancer xenograft model according to the experimental procedure described in Example 2. Anti-cancer activity was evaluated by measuring changes in tumor volume."}, "[4]": {"tested_on": "H22 murine hepatic cancer xenograft", "assay": "In vivo tumor growth, H22 murine hepatic cancer xenograft model, compared with anti-PD-1 mAb (Example 5)", "parameters": "species or system Mouse (Mus Musculus)", "details": "p.o.; for Tumor Volume (mm^3): QD x 20 days; for T/C (%) / TGI (%) tumor growth inhibition: QD", "experimental": "as §1, §2, §3, §4, §5\nThe anti-cancer activity of nepicastat, etamicastat and anti-PD-1 monoclonal antibody (mAb) was evaluated in a H22 murine hepatic cancer xenograft model according to the experimental procedure described in Example 2."}},
  "data": [
    {"smiles": "CCNC(=O)N1CCN(CCCC(c2ccc(F)cc2)c2ccc(F)cc2)CC1", "note": "[Amperozide, amperozide]", "values": [
      {"measurement": "anti-proliferative effect on H22 cell line", "setting": "[1]", "value": "did not show any significant anti-proliferative effects"},
      {"measurement": "viability at 0.1 µM", "setting": "[1]; Mus musculus", "value": 100, "unit": "%"},
      {"measurement": "viability at 1 µM", "setting": "[1]; Mus musculus", "value": 95.1, "unit": "%"},
      {"measurement": "IC50", "setting": "[1]; Mus musculus, calculated from FIG. 1, read-out: IC50 in H22 murine hepatocarcinoma cells proliferation", "value": 38.8, "unit": "µM"},
      {"measurement": "Cmax", "setting": "[2]", "value": "~100", "unit": "nM"},
      {"measurement": "T-C (days) (Reach 1000 mm^3)", "setting": "[3]; Amperozide 2 mg/kg", "value": 2, "unit": "days"},
      {"measurement": "Tumor Volume", "setting": "[3]; Amperozide 2 mg/kg, day 5", "value": "80 ± 9", "unit": "mm^3"},
      {"measurement": "Tumor Volume", "setting": "[3]; Amperozide 2 mg/kg, day 7", "value": "166 ± 19", "unit": "mm^3"},
      {"measurement": "Tumor Volume", "setting": "[3]; Amperozide 2 mg/kg, day 9", "value": "355 ± 36", "unit": "mm^3"},
      {"measurement": "Tumor Volume", "setting": "[3]; Amperozide 2 mg/kg, day 12", "value": "576 ± 48", "unit": "mm^3"},
      {"measurement": "Tumor Volume", "setting": "[3]; Amperozide 2 mg/kg, day 14", "value": "806 ± 31", "unit": "mm^3"},
      {"measurement": "Tumor Volume", "setting": "[3]; Amperozide 2 mg/kg, day 16", "value": "1,219 ± 39 mm^3"},
      {"measurement": "T/C (%)", "setting": "[3]; Amperozide 2 mg/kg, day 19", "value": 64.4, "unit": "%"},
      {"measurement": "TGI (%) tumor growth inhibition", "setting": "[3]; Amperozide 2 mg/kg, day 19", "value": 35.6, "unit": "%"},
      {"measurement": "Tumor Volume", "setting": "[3]; Amperozide 2 mg/kg, day 19", "value": "1,948 ± 158 mm^3"},
      {"measurement": "Tumor Volume", "setting": "[3]; Amperozide 2 mg/kg, day 19, listed as amperozide", "value": 1948, "unit": "mm^3"},
      {"measurement": "T-C (days) (Reach 1000 mm^3)", "setting": "[3]; Amperozide 6 mg/kg", "value": 1, "unit": "days"},
      {"measurement": "Tumor Volume", "setting": "[3]; Amperozide 6 mg/kg, day 5", "value": "80 ± 9", "unit": "mm^3"},
      {"measurement": "Tumor Volume", "setting": "[3]; Amperozide 6 mg/kg, day 7", "value": "174 ± 26", "unit": "mm^3"},
      {"measurement": "Tumor Volume", "setting": "[3]; Amperozide 6 mg/kg, day 9", "value": "367 ± 51", "unit": "mm^3"},
      {"measurement": "Tumor Volume", "setting": "[3]; Amperozide 6 mg/kg, day 12", "value": "602 ± 77", "unit": "mm^3"},
      {"measurement": "Tumor Volume", "setting": "[3]; Amperozide 6 mg/kg, day 14", "value": "1,004 ± 75 mm^3"},
      {"measurement": "Tumor Volume", "setting": "[3]; Amperozide 6 mg/kg, day 16", "value": "1,625 ± 101 mm^3"},
      {"measurement": "T/C (%)", "setting": "[3]; Amperozide 6 mg/kg, day 19", "value": 95.9, "unit": "%"},
      {"measurement": "TGI (%) tumor growth inhibition", "setting": "[3]; Amperozide 6 mg/kg, day 19", "value": 4.1, "unit": "%"},
      {"measurement": "Tumor Volume", "setting": "[3]; Amperozide 6 mg/kg, day 19", "value": "2,903 ± 315 mm^3"}
    ]},
    {"smiles": "NCCc1c[nH]c(=S)n1[C@H]1COc2c(F)cc(F)cc2C1", "note": "[Etamicastat, etamicastat]", "values": [
      {"measurement": "Tumor Volume (mm^3)", "setting": "[4]; Etamicastat 80 mg/kg, day 3", "value": "56.40 ± 4.21", "unit": "mm^3"},
      {"measurement": "Tumor Volume (mm^3)", "setting": "[4]; Etamicastat 80 mg/kg, day 6", "value": "142.74 ± 14.75", "unit": "mm^3"},
      {"measurement": "Tumor Volume (mm^3)", "setting": "[4]; Etamicastat 80 mg/kg, day 9", "value": "325.41 ± 39.55", "unit": "mm^3"},
      {"measurement": "Tumor Volume (mm^3)", "setting": "[4]; Etamicastat 80 mg/kg, day 13", "value": "437.62 ± 48.77", "unit": "mm^3"},
      {"measurement": "Tumor Volume (mm^3)", "setting": "[4]; Etamicastat 80 mg/kg, day 16", "value": "645.29 ± 50.41", "unit": "mm^3"},
      {"measurement": "Tumor Volume (mm^3)", "setting": "[4]; Etamicastat 80 mg/kg, day 19", "value": "892.56 ± 131.83", "unit": "mm^3"},
      {"measurement": "Tumor Volume (mm^3)", "setting": "[4]; Etamicastat 80 mg/kg, day 22", "value": "1210.52 ± 197.23", "unit": "mm^3"},
      {"measurement": "Tumor Volume (mm^3)", "setting": "[4]; Etamicastat 80 mg/kg, day 22, listed as etamicastat", "value": "1,210.52 mm^3"},
      {"measurement": "T/C (%)", "setting": "[4]; Etamicastat 80 mg/kg, day 22", "value": 70.42, "unit": "%"},
      {"measurement": "TGI (%) tumor growth inhibition", "setting": "[4]; Etamicastat 80 mg/kg, day 22", "value": 29.58, "unit": "%"},
      {"measurement": "Tumor Volume (mm^3)", "setting": "[4]; Etamicastat 160 mg/kg, day 3", "value": "56.42 ± 3.25", "unit": "mm^3"},
      {"measurement": "Tumor Volume (mm^3)", "setting": "[4]; Etamicastat 160 mg/kg, day 6", "value": "134.64 ± 14.18", "unit": "mm^3"},
      {"measurement": "Tumor Volume (mm^3)", "setting": "[4]; Etamicastat 160 mg/kg, day 9", "value": "270.71 ± 33.96", "unit": "mm^3"},
      {"measurement": "Tumor Volume (mm^3)", "setting": "[4]; Etamicastat 160 mg/kg, day 13", "value": "513.74 ± 103.91", "unit": "mm^3"},
      {"measurement": "Tumor Volume (mm^3)", "setting": "[4]; Etamicastat 160 mg/kg, day 16", "value": "825.29 ± 198.51", "unit": "mm^3"},
      {"measurement": "Tumor Volume (mm^3)", "setting": "[4]; Etamicastat 160 mg/kg, day 19", "value": "1167.51 ± 300.84", "unit": "mm^3"},
      {"measurement": "Tumor Volume (mm^3)", "setting": "[4]; Etamicastat 160 mg/kg, day 22", "value": "1309.12 ± 492.02", "unit": "mm^3"},
      {"measurement": "Tumor Volume (mm^3)", "setting": "[4]; Etamicastat 160 mg/kg, day 22, listed as etamicastat", "value": "1,309.12 mm^3"},
      {"measurement": "T/C (%)", "setting": "[4]; Etamicastat 160 mg/kg, day 22", "value": 76.16, "unit": "%"},
      {"measurement": "TGI (%) tumor growth inhibition", "setting": "[4]; Etamicastat 160 mg/kg, day 22", "value": 23.84, "unit": "%"}
    ]},
    {"smiles": "CC(=O)O[C@H]1C(=O)[C@@]2(C)[C@H]([C@H](OC(=O)c3ccccc3)[C@]3(O)C[C@H](OC(=O)[C@H](O)[C@@H](NC(=O)c4ccccc4)c4ccccc4)C(C)=C1C3(C)C)[C@]1(OC(C)=O)CO[C@@H]1C[C@@H]2O", "note": "[Paclitaxel]", "values": [
      {"measurement": "anti-proliferative effect on H22 cell line", "setting": "[1]", "value": "strong inhibition effect"},
      {"measurement": "viability at 0.1 µM", "setting": "[1]; Mus musculus", "value": 28.4, "unit": "%"},
      {"measurement": "viability at 1 µM", "setting": "[1]; Mus musculus", "value": 20.8, "unit": "%"},
      {"measurement": "T-C (days) (Reach 1000 mm^3)", "setting": "[3]; Paclitaxel 15 mg/kg", "value": 2, "unit": "days"},
      {"measurement": "Tumor Volume", "setting": "[3]; Paclitaxel 15 mg/kg, day 5", "value": "80 ± 9", "unit": "mm^3"},
      {"measurement": "Tumor Volume", "setting": "[3]; Paclitaxel 15 mg/kg, day 7", "value": "140 ± 17", "unit": "mm^3"},
      {"measurement": "Tumor Volume", "setting": "[3]; Paclitaxel 15 mg/kg, day 9", "value": "270 ± 48", "unit": "mm^3"},
      {"measurement": "Tumor Volume", "setting": "[3]; Paclitaxel 15 mg/kg, day 12", "value": "435 ± 60", "unit": "mm^3"},
      {"measurement": "Tumor Volume", "setting": "[3]; Paclitaxel 15 mg/kg, day 14", "value": "722 ± 105", "unit": "mm^3"},
      {"measurement": "Tumor Volume", "setting": "[3]; Paclitaxel 15 mg/kg, day 16", "value": "1,188 ± 206 mm^3"},
      {"measurement": "T/C (%)", "setting": "[3]; Paclitaxel 15 mg/kg, day 19", "value": 65.5, "unit": "%"},
      {"measurement": "TGI (%) tumor growth inhibition", "setting": "[3]; Paclitaxel 15 mg/kg, day 19", "value": 34.5, "unit": "%"},
      {"measurement": "Tumor Volume", "setting": "[3]; Paclitaxel 15 mg/kg, day 19", "value": "1,982 ± 327 mm^3"},
      {"measurement": "Tumor Volume", "setting": "[3]; Paclitaxel 15 mg/kg, day 19, listed as paclitaxel", "value": 1982, "unit": "mm^3"}
    ]}
  ]
}
